Results taken from patent US12466835B1, “Solid forms of macrocyclic compounds, salts and formulations thereof, and methods of preparing and using the same” (Kura Oncology, Inc., priority 2023, dated 2025).
Converted amounts (≈) assume the structure as drawn.

Legend:
Format in all cases: physicochemical
[1] = Solubility testing of solid forms in water, SGF, FaSSIF and FeSSIF media
Description: About 15 mg of test material was weighed into a sample vial and then 3.0 mL of water, simulated gastric fluid (SGF), fasted state simulated intestinali fluid (FaSSIF), or fed state simulated intestinal fluid (FeSSIF) media was added. The resulting suspensions were shaken at 37° C. for up to 24 hours. At 0.5, 2, and 24 hours, suspensions were filtered, and test material concentrations in the filtrates were analyzed by HPLC. Residual solids were collected for analysis.

[2] = Stability testing of blended samples exposed to high temperature and/or humidity for four weeks
Description: Compound 1, microcrystalline cellulose, D-mannitol, croscarmellose sodium, and magnesium stearate were blended using standard methods. Results from stability testing from exposure of blended samples to high temperature and/or humidity for four weeks are provided in Table 8.

[3] = Four-week excipient compatibility study under accelerated stress conditions; conditions: four weeks, 40° C./75% relative humidity and 60° C. accelerated stress conditions
[4] = Powder properties of Form 1 (bulk density, flowability)
Description: Use of a glidant, disintegrant, and lubricant allowed for acceptable tableting and disintegration characteristics.

[5] = FaSSIF, pH of media 6.5, 37° C.
[6] = FeSSIF, pH of media 5.0, 37° C.
[7] = FaSSIF, pH of media 6.5, 37° C., listed as Free base (Form 1)
[8] = FeSSIF, pH of media 5.0, 37° C., listed as Free base (Form 1)
[9] = SGF, pH of media 1.2, 37° C., listed as Free base (Form 1)
[10] = Water, 37° C., listed as Free base (Form 1)
[11] = FaSSIF, pH of media 6.5, 37° C., listed as Fumarate (Form 8)
[12] = FeSSIF, pH of media 5.0, 37° C., listed as Fumarate (Form 8)
[13] = SGF, pH of media 1.2, 37° C., listed as Fumarate (Form 8)
[14] = Water, 37° C., listed as Fumarate (Form 8)
[15] = SGF, pH of media 1.2, 37° C., listed as 1-Hydroxy-2-naphthoate (Form 13)
[16] = Water, 37° C., listed as 1-Hydroxy-2-naphthoate (Form 13)

Cn1cncc1[C@@]1(N)c2ccc(C#N)c(c2)COc2cccc(c2)-c2cc(C#N)nc3ccc1cc23 [Amorphous free base, (S)-3-amino-3-(1-methyl-1H-imidazol-5-yl)-6-oxa-2(4,6)-quinolina-1,4(1,3)-dibenzenacyclohexaphane-2^2,4^4-dicarbonitrile]
Solubility (mg/mL) 2 h [1, 5]: 0.085 mg/mL (≈ 181 µM) | Solubility (mg/mL) 24 h [1, 5]: 0.09 mg/mL (≈ 192 µM) | Solubility (mg/mL) 2 h [1, 6]: 1.22 mg/mL (≈ 2600 µM) | Solubility (mg/mL) 24 h [1, 6]: 1.29 mg/mL (≈ 2750 µM) | Solubility (mg/mL) 2 h ([1]; SGF, pH of media 1.2, 37° C.): ~5 mg/mL (≈ 10700 µM) | Solubility (mg/mL) 24 h ([1]; SGF, pH of media 1.2, 37° C.): ~5 mg/mL (≈ 10700 µM) | Solubility (mg/mL) 2 h ([1]; Water, 37° C.): 0.002 mg/mL (≈ 4.27 µM) | Solubility (mg/mL) 24 h ([1]; Water, 37° C.): 0.0009 mg/mL (≈ 1.92 µM)

Cn1cncc1[C@@]1(N)c2ccc(C#N)c(c2)COc2cccc(c2)-c2cc(C#N)nc3ccc1cc23 [Compound 1, (S)-3-amino-3-(1-methyl-1H-imidazol-5-yl)-6-oxa-2(4,6)-quinolina-1,4(1,3)-dibenzenacyclohexaphane-2^2,4^4-dicarbonitrile]
% Purity 60° C. [2]: 99.35% | Compatibility with Tablet Formulation 1 excipients [3]: no incompatibility

Cn1cncc1[C@@]1(N)c2ccc(C#N)c(c2)COc2cccc(c2)-c2cc(C#N)nc3ccc1cc23 [Form 1, (S)-3-amino-3-(1-methyl-1H-imidazol-5-yl)-6-oxa-2(4,6)-quinolina-1,4(1,3)-dibenzenacyclohexaphane-2^2,4^4-dicarbonitrile]
bulk density [4]: about 0.2 g/mL | Solubility (mg/mL) 2 h [1, 7]: 0.0066 mg/mL (≈ 14.1 µM) | Solubility (mg/mL) 24 h [1, 7]: 0.011 mg/mL (≈ 23.5 µM) | Solubility (mg/mL) 2 h [1, 6]: ~0.31 mg/mL (≈ 662 µM) | Solubility (mg/mL) 2 h [1, 8]: 0.31 mg/mL (≈ 662 µM) | Solubility (mg/mL) 24 h [1, 6]: ~0.33 mg/mL (≈ 704 µM) | Solubility (mg/mL) 24 h [1, 8]: 0.33 mg/mL (≈ 704 µM) | Solubility (mg/mL) 2 h ([1]; SGF, pH of media 1.2, 37° C.): ~5.04 mg/mL (≈ 10800 µM) | Solubility (mg/mL) 2 h [1, 9]: 5.04 mg/mL (≈ 10800 µM) | Solubility (mg/mL) 24 h ([1]; SGF, pH of media 1.2, 37° C.): ~3.67 mg/mL (≈ 7830 µM) | Solubility (mg/mL) 24 h [1, 9]: 3.67 mg/mL (≈ 7830 µM) | Solubility (mg/mL) 2 h [1, 10]: <LOD | Solubility (mg/mL) 24 h [1, 10]: <LOD

Cn1cncc1[C@@]1(N)c2ccc(C#N)c(c2)COc2cccc(c2)-c2cc(C#N)nc3ccc1cc23 [Form 8, (S)-3-amino-3-(1-methyl-1H-imidazol-5-yl)-6-oxa-2(4,6)-quinolina-1,4(1,3)-dibenzenacyclohexaphane-2^2,4^4-dicarbonitrile]
Solubility (mg/mL) 2 h [1, 11]: 0.16 mg/mL (≈ 342 µM) | Solubility (mg/mL) 24 h [1, 11]: 0.45 mg/mL (≈ 960 µM) | Solubility (mg/mL) 2 h [1, 6]: ~1.26 mg/mL (≈ 2690 µM) | Solubility (mg/mL) 2 h [1, 12]: 1.26 mg/mL (≈ 2690 µM) | Solubility (mg/mL) 24 h [1, 6]: ~1.15 mg/mL (≈ 2450 µM) | Solubility (mg/mL) 24 h [1, 12]: 1.15 mg/mL (≈ 2450 µM) | Solubility (mg/mL) 2 h ([1]; SGF, pH of media 1.2, 37° C.): ≥ 5 mg/mL | Solubility (mg/mL) 2 h [1, 13]: ~5 mg/mL (≈ 10700 µM) | Solubility (mg/mL) 24 h ([1]; SGF, pH of media 1.2, 37° C.): ≥ 5 mg/mL | Solubility (mg/mL) 24 h [1, 13]: ~5 mg/mL (≈ 10700 µM) | Solubility (mg/mL) 2 h [1, 14]: 0.43 mg/mL (≈ 918 µM) | Solubility (mg/mL) 24 h [1, 14]: 0.34 mg/mL (≈ 726 µM)

Cn1cncc1[C@@]1(N)c2ccc(C#N)c(c2)COc2cccc(c2)-c2cc(C#N)nc3ccc1cc23 [Form 13, (S)-3-amino-3-(1-methyl-1H-imidazol-5-yl)-6-oxa-2(4,6)-quinolina-1,4(1,3)-dibenzenacyclohexaphane-2^2,4^4-dicarbonitrile]
Solubility (mg/mL) 2 h ([1]; FaSSIF, pH of media 6.5, 37° C., listed as 1-Hydroxy-2-naphthoate (Form 13)): 0.086 mg/mL (≈ 184 µM) | Solubility (mg/mL) 2 h [1, 6]: ~0.82 mg/mL (≈ 1750 µM) | Solubility (mg/mL) 2 h ([1]; FeSSIF, pH of media 5.0, 37° C., listed as 1-Hydroxy-2-naphthoate (Form 13)): 0.82 mg/mL (≈ 1750 µM) | Solubility (mg/mL) 2 h ([1]; SGF, pH of media 1.2, 37° C.): ~4.05 mg/mL (≈ 8640 µM) | Solubility (mg/mL) 2 h [1, 15]: 4.05 mg/mL (≈ 8640 µM) | Solubility (mg/mL) 24 h ([1]; SGF, pH of media 1.2, 37° C.): ~4.12 mg/mL (≈ 8790 µM) | Solubility (mg/mL) 24 h [1, 15]: 4.12 mg/mL (≈ 8790 µM) | Solubility (mg/mL) 2 h [1, 16]: 0.020 mg/mL (≈ 42.7 µM) | Solubility (mg/mL) 24 h [1, 16]: 0.013 mg/mL (≈ 27.7 µM)
